One may read the IC50 as the midpoint of a concentration-inhibition curve. A lower IC50 goes with inhibition by little substance.

Each structure is given as a SMILES string.

The species named for assay [1] is Rattus norvegicus. In words: The ratio of the conc of compound to dequalinium to cause 50% inhibition of the after hyperpolarization (AHP) in cultured rat sympathetic neurones. The class given is functional, Sympathetic neuron.
Assay [2] is filed under the species Rattus norvegicus. In words: Compound was tested for SKCa blocking action by measuring its ability to inhibit after hyperpolarization (AHP) in cultured rat sympathetic neurones. The settings on record: Sympathetic neuron. It counts as functional.

Consider `c1cc2cc(c1)C[n+]1ccc(c3ccccc31)NCc1ccc(cc1)CNc1cc[n+](c3ccccc13)C2`, for which, in assay [1], the EMR is recorded as 0.01. In assay [2], this compound showed a 50% inhibitory concentration (IC50) of 3 nM.
As to `c1ccc2c(c1)c1cc[n+]2Cc2ccc(cc2)Cc2ccc(cc2)C[n+]2ccc(c3ccccc32)NCc2ccc(cc2)Cc2ccc(cc2)CN1`, the EMR in assay [1] was 0.31. Further, half-maximal inhibition in assay [2] (IC50) was put at 260 nM.
In the same order, the values of `c1cc2cc(c1)CNc1cc[n+](c3ccccc13)Cc1ccc(cc1)C[n+]1ccc(c3ccccc31)NC2` are 0.18 and 70 nM.
In the case of `c1ccc2c(c1)c1cc[n+]2Cc2ccc(cc2)-c2ccc(cc2)C[n+]2ccc(c3ccccc32)NCc2ccc(cc2)Cc2ccc(cc2)CN1`, the EMR in assay [1] stood at 0.26. Moreover, the IC50 in assay [2] is 150 nM.
Taken in the same sequence, the figures for `c1cc2cc(c1)CNc1cc[n+](c3ccccc13)Cc1cccc(c1)C[n+]1ccc(c3ccccc31)NC2` were 0.22 and 130 nM.
Taken in the same sequence, the figures for `c1ccc2c(c1)c1cc[n+]2Cc2ccc(cc2)C[n+]2ccc(c3ccccc32)NCc2ccc(cc2)CN1` were 0.05 and 28 nM.
Take `c1ccc2c(c1)c1cc[n+]2Cc2ccc(cc2)Cc2ccc(cc2)C[n+]2ccc(c3ccccc32)NCc2ccc(cc2)-c2ccc(cc2)CN1`: the EMR in assay [1] came out at 0.8. For the same compound, in assay [2], the midpoint of inhibition, the IC50, lay at 280 nM.
Taken in the same sequence, the figures for `Cc1cc(N)c2ccccc2[n+]1CCCCCCCCCC[n+]1c(C)cc(N)c2ccccc21.[Cl-].[Cl-]` [DEQUALINIUM CHLORIDE] were 1 and 570 nM.

The record behind these values is ChEMBL document CHEMBL1131200, “Bis-quinolinium cyclophanes: 6,10-diaza-3(1,3),8(1,4)-dibenzena-1,5(1,4)- diquinolinacyclodecaphane (UCL 1684), the first nanomolar, non-peptidic blocker of the apamin-sensitive Ca(2+)-activated K+ channel” (J Med Chem, 1998).
